Laboratory results published in paper PMC5392334, “Discovery and characterization of a novel irreversible EGFR mutants selective and potent kinase inhibitor CHMFL-EGFR-26 with a distinct binding mode” (Oncotarget, 2017).

Experiments:
EGFR(L747-T751del,Sins) = experiment: KinomeScan; format: binding; details: 1μM
NDR1 = molecular target: T1, NDR1 (Homo sapiens, UniProt Q15208); experiment: KinomeScan; format: binding; details: read-out: % control
T1 construct: purchased DiscoveRx KINOMEscan

PLK2 = molecular target: T2, PLK2 (Homo sapiens, UniProt Q9NYY3); experiment: KinomeScan; format: binding; details: read-out: % control
T2 construct: purchased DiscoveRx KINOMEscan

FLT1 = molecular target: T3, FLT1 (Homo sapiens, UniProt P17948); experiment: KinomeScan; format: binding; details: read-out: % control
T3 construct: purchased DiscoveRx KINOMEscan

DRAK2 = molecular target: T4, DRAK2 (Homo sapiens, UniProt O94768); experiment: KinomeScan; format: binding; details: read-out: % control
T4 construct: purchased DiscoveRx KINOMEscan

FLT4 = molecular target: T5, FLT4 (Homo sapiens, UniProt P35916); experiment: KinomeScan; format: binding; details: read-out: % control
T5 construct: purchased DiscoveRx KINOMEscan

PRKD3 = molecular target: T6, PRKD3 (Homo sapiens, UniProt O94806); experiment: KinomeScan; format: binding; details: read-out: % control
T6 construct: purchased DiscoveRx KINOMEscan

MARK3 = molecular target: T7, MARK3 (Homo sapiens, UniProt P27448); experiment: KinomeScan; format: binding; details: read-out: % control
T7 construct: purchased DiscoveRx KINOMEscan

CAMK1G = molecular target: T8, CAMK1G (Homo sapiens, UniProt Q96NX5); experiment: KinomeScan; format: binding; details: read-out: % control
T8 construct: purchased DiscoveRx KINOMEscan

PIP5K2C = molecular target: T9, PIP5K2C (Homo sapiens, UniProt Q8TBX8); experiment: KinomeScan; format: binding; details: read-out: % control
T9 construct: purchased DiscoveRx KINOMEscan

MYLK = molecular target: T10, MYLK (Homo sapiens, UniProt Q15746); experiment: KinomeScan; format: binding; details: read-out: % control
T10 construct: purchased DiscoveRx KINOMEscan
T10 sequence (Q15746 whole entry): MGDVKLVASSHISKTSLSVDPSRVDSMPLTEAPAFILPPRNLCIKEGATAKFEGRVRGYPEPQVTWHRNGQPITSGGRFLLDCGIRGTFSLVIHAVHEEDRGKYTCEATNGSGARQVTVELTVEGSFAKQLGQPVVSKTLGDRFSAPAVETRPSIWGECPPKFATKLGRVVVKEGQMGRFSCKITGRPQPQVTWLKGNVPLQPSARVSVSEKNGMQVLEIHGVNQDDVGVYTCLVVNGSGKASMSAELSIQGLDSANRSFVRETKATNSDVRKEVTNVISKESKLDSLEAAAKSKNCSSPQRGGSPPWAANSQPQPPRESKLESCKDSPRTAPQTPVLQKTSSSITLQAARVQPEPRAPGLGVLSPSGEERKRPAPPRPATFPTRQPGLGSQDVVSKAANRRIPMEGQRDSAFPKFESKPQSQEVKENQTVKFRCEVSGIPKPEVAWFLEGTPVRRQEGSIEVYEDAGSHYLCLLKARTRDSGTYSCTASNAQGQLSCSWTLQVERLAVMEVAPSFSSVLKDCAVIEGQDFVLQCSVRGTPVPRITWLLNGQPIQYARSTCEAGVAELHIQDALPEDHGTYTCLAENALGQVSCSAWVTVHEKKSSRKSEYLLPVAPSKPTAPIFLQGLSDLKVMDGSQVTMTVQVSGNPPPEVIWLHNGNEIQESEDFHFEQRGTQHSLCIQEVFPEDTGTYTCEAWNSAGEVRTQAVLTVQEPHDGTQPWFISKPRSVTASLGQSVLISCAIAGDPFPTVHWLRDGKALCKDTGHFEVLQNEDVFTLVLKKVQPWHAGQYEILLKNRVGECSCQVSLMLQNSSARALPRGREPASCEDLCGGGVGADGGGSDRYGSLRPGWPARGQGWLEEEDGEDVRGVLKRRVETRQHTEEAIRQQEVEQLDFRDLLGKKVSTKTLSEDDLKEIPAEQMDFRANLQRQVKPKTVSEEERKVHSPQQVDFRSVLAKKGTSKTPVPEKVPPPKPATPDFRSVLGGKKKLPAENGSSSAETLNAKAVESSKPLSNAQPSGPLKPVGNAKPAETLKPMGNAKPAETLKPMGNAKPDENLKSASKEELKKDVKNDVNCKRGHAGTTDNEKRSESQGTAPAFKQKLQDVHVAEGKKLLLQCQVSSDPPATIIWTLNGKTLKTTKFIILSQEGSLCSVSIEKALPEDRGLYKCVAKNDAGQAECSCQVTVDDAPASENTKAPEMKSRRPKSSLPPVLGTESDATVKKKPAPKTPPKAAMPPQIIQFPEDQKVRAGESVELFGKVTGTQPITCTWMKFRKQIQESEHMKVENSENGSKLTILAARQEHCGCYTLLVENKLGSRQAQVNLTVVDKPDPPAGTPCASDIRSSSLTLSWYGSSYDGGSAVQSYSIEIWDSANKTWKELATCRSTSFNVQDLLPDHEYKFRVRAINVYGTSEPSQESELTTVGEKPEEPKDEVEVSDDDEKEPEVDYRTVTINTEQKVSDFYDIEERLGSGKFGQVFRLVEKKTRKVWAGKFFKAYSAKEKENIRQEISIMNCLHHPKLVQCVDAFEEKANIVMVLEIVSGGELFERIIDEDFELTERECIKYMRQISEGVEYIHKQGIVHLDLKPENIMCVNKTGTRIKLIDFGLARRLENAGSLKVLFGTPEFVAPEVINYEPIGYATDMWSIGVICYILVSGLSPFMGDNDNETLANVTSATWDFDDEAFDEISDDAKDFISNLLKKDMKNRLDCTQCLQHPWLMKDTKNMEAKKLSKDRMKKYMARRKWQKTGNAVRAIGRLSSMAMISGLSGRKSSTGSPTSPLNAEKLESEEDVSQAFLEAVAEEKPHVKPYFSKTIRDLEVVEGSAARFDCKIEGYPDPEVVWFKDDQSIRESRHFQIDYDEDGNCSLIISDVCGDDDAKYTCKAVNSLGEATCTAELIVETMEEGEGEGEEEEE

PRKG2 = molecular target: T11, PRKG2 (Homo sapiens, UniProt Q13237); experiment: KinomeScan; format: binding; details: read-out: % control
T11 construct: purchased DiscoveRx KINOMEscan
T11 sequence (Q13237 whole entry): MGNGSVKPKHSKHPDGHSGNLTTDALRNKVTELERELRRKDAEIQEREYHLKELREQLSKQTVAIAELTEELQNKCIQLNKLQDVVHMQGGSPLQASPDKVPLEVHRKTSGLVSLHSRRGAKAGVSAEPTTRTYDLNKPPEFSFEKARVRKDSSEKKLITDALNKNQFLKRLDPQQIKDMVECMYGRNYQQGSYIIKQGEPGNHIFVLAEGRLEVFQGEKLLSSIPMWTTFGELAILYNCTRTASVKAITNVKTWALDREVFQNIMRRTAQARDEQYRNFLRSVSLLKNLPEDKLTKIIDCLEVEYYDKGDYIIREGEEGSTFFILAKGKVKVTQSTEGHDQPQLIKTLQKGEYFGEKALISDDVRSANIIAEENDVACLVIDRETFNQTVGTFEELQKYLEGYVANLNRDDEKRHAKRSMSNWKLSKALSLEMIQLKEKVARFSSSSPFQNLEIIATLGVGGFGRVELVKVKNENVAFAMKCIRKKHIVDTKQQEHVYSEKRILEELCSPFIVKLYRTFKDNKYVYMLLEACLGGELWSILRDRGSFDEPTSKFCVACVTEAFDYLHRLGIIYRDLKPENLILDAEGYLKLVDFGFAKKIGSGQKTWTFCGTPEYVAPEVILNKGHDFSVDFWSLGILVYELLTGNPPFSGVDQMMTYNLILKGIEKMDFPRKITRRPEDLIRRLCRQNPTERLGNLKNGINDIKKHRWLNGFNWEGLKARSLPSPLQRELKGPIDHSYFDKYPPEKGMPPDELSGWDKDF

TRKB = molecular target: T12, TRKB (Homo sapiens, UniProt Q16620); experiment: KinomeScan; format: binding; details: read-out: % control
T12 construct: purchased DiscoveRx KINOMEscan

RIOK1 = molecular target: T13, RIOK1 (Homo sapiens, UniProt Q9BRS2); experiment: KinomeScan; format: binding; details: read-out: % control
T13 construct: purchased DiscoveRx KINOMEscan

TAOK3 = molecular target: T14, TAOK3 (Homo sapiens, UniProt Q9H2K8); experiment: KinomeScan; format: binding; details: read-out: % control
T14 construct: purchased DiscoveRx KINOMEscan

MUSK = molecular target: T15, MUSK (Homo sapiens, UniProt O15146); experiment: KinomeScan; format: binding; details: read-out: % control
T15 construct: purchased DiscoveRx KINOMEscan

YSK4 = molecular target: T16, YSK4 (Homo sapiens, UniProt Q56UN5); experiment: KinomeScan; format: binding; details: read-out: % control
T16 construct: purchased DiscoveRx KINOMEscan

FGFR3 = molecular target: T17, FGFR3 (Homo sapiens, UniProt P22607); experiment: KinomeScan; format: binding; details: read-out: % control
T17 construct: purchased DiscoveRx KINOMEscan

MST4 = molecular target: T18, MST4 (Homo sapiens, UniProt Q9P289); experiment: KinomeScan; format: binding; details: read-out: % control
T18 construct: purchased DiscoveRx KINOMEscan
T18 sequence (Q9P289 whole entry): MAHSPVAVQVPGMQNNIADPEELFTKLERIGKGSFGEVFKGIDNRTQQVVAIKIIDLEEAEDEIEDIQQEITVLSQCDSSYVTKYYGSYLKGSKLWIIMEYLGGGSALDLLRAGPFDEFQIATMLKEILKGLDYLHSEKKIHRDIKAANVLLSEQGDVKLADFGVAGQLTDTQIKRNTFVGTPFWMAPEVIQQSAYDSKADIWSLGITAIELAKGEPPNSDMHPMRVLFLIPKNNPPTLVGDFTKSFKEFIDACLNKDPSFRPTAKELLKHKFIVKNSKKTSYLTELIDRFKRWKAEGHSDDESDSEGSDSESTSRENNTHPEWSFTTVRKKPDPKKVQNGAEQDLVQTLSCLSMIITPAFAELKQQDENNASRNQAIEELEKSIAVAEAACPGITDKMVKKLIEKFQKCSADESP

LTK = molecular target: T19, LTK (Homo sapiens, UniProt P29376); experiment: KinomeScan; format: binding; details: read-out: % control
T19 construct: purchased DiscoveRx KINOMEscan

WEE2 = molecular target: T20, WEE2 (Homo sapiens, UniProt P0C1S8); experiment: KinomeScan; format: binding; details: read-out: % control
T20 construct: purchased DiscoveRx KINOMEscan

PFTAIRE2 = molecular target: T21, PFTAIRE2 (Homo sapiens, UniProt Q96Q40); experiment: KinomeScan; format: binding; details: read-out: % control
T21 construct: purchased DiscoveRx KINOMEscan
T21 sequence (Q96Q40 whole entry): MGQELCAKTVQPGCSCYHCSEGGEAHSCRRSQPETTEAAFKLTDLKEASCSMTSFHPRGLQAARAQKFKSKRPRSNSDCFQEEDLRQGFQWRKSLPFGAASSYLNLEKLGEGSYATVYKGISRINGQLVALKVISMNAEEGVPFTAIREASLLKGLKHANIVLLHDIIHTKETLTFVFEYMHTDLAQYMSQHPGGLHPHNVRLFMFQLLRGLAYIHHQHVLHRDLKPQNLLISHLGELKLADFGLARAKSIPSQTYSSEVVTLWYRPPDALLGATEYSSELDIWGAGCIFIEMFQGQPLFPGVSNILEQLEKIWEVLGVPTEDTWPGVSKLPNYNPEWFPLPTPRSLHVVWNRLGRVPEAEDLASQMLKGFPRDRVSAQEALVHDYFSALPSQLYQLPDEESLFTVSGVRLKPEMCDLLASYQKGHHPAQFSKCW

CDK11 = molecular target: T22, CDK11 (Homo sapiens, UniProt Q9BWU1); experiment: KinomeScan; format: binding; details: read-out: % control
T22 construct: purchased DiscoveRx KINOMEscan
T22 sequence (Q9BWU1 whole entry): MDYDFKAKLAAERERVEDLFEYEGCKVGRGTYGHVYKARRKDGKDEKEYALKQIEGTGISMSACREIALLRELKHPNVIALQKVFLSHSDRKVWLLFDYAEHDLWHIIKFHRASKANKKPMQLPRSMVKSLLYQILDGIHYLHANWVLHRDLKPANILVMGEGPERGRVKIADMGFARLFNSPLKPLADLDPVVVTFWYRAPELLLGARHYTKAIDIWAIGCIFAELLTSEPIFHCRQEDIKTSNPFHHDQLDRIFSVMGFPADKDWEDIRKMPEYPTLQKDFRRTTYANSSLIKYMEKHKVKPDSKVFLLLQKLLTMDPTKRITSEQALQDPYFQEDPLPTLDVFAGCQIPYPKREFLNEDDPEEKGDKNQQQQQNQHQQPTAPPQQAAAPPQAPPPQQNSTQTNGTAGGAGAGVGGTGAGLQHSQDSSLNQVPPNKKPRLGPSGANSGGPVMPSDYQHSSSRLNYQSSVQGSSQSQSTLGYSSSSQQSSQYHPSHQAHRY

BMPR2 = molecular target: T23, BMPR2 (Homo sapiens, UniProt Q13873); experiment: KinomeScan; format: binding; details: read-out: % control
T23 construct: purchased DiscoveRx KINOMEscan

JNK3 = molecular target: T24, JNK3 (Homo sapiens, UniProt P53779); experiment: KinomeScan; format: binding; details: read-out: % control
T24 construct: purchased DiscoveRx KINOMEscan

[1] = system: NSCLC cell lines (H1975, HCC827, PC9, H3255; A549, H1355); experiment: Cell cycle analysis; format: cell-based, human
Description: We then examined CHMFL-EGFR-26's effect on cell cycle progression and apoptosis.
The cells were fixed in 70% cold ethanol and incubated at −20 °C overnight then stained with PI/RNase staining buffer (BD Pharmingen). Flow cytometry was performed using a FACS Calibur (BD), and results were analyzed by ModFit software.

MET(M1250T) = molecular target: T25, MET(M1250T) (Homo sapiens, UniProt P08581, M1250T); experiment: KinomeScan; format: binding; details: read-out: % control
T25 construct: purchased DiscoveRx KINOMEscan

EGFR(S752-I759del) = molecular target: T26, EGFR(S752-I759del) (Homo sapiens, UniProt P00533, DEL752-759); experiment: KinomeScan; format: binding; details: read-out: % control
T26 construct: purchased DiscoveRx KINOMEscan

CAMK2G = molecular target: T27, CAMK2G (Homo sapiens, UniProt Q13555); experiment: KinomeScan; format: binding; details: read-out: % control
T27 construct: purchased DiscoveRx KINOMEscan

PKNB(M.tuberculosis) = molecular target: T28, PKNB(M.tuberculosis) (Mycobacterium tuberculosis, UniProt P9WI81); experiment: KinomeScan; format: binding; details: read-out: % control
T28 construct: purchased DiscoveRx KINOMEscan

TAOK1 = molecular target: T29, TAOK1 (Homo sapiens, UniProt Q7L7X3); experiment: KinomeScan; format: binding; details: read-out: % control
T29 construct: purchased DiscoveRx KINOMEscan

VRK2 = molecular target: T30, VRK2 (Homo sapiens, UniProt Q86Y07); experiment: KinomeScan; format: binding; details: read-out: % control
T30 construct: purchased DiscoveRx KINOMEscan

CAMK1B = molecular target: T31, CAMK1B (Homo sapiens, UniProt Q6P2M8); experiment: KinomeScan; format: binding; details: read-out: % control
T31 construct: purchased DiscoveRx KINOMEscan

PRKX = molecular target: T32, PRKX (Homo sapiens, UniProt P51817); experiment: KinomeScan; format: binding; details: read-out: % control
T32 construct: purchased DiscoveRx KINOMEscan
T32 sequence (P51817 whole entry): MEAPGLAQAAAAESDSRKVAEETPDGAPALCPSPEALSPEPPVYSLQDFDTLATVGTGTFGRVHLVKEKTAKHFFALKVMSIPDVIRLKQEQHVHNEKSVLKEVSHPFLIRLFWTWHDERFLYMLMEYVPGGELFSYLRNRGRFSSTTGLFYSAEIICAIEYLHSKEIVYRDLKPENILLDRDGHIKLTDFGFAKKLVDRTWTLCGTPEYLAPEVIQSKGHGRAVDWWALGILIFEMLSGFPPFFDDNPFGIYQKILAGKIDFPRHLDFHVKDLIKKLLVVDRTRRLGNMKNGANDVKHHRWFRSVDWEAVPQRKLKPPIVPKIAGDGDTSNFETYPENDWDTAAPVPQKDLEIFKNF

CSNK2A1 = molecular target: T33, CSNK2A1 (Homo sapiens, UniProt P68400); experiment: KinomeScan; format: binding; details: read-out: % control
T33 construct: purchased DiscoveRx KINOMEscan

PIK3CG = molecular target: T34, PIK3CG (Homo sapiens, UniProt P48736); experiment: KinomeScan; format: binding; details: read-out: % control
T34 construct: purchased DiscoveRx KINOMEscan

[2] = molecular target: T35, JAK3(JH1domain-catalytic) (Homo sapiens, UniProt P52333); experiment: KinomeScan; format: binding; details: read-out: % control
T35 construct: JAK3(JH1domain-catalytic); purchased DiscoveRx KINOMEscan

MYO3A = molecular target: T36, MYO3A (Homo sapiens, UniProt Q8NEV4); experiment: KinomeScan; format: binding; details: read-out: % control
T36 construct: purchased DiscoveRx KINOMEscan

MEK4 = molecular target: T37, MEK4 (Homo sapiens, UniProt P45985); experiment: KinomeScan; format: binding; details: read-out: % control
T37 construct: purchased DiscoveRx KINOMEscan

[3] = molecular target: T38, ABL1(Q252H)-nonphosphorylated (Homo sapiens, UniProt P00519, Q252H); experiment: KinomeScan; format: binding; details: read-out: % control
T38 construct: purchased DiscoveRx KINOMEscan

ERK4 = molecular target: T39, ERK4 (Homo sapiens, UniProt P31152); experiment: KinomeScan; format: binding; details: read-out: % control
T39 construct: purchased DiscoveRx KINOMEscan
T39 sequence (P31152 whole entry): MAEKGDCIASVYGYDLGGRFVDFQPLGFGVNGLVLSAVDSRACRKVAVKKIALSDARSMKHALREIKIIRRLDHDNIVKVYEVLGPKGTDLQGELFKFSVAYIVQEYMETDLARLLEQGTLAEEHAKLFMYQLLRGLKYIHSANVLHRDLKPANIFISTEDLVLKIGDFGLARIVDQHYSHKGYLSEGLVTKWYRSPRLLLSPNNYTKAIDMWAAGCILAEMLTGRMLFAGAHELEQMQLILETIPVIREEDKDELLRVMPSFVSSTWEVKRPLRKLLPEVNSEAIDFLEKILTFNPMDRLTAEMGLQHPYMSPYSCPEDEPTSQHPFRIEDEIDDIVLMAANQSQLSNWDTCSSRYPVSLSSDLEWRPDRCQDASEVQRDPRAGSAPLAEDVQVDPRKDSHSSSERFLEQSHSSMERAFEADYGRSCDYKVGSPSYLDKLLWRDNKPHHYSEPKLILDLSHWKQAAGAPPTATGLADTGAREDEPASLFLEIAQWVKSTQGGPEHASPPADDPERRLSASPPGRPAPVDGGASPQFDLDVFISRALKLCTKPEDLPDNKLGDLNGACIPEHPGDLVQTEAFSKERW

C=CC(=O)N1CCC[C@@H](n2nc(-c3ccc(OCc4cccc(C)n4)c(Cl)c3)c3c(N)ncnc32)C1 [CHMFL-EGFR-26]
% control (EGFR(L747-T751del,Sins)): 21%
remaining binding at 1 µM (NDR1): 71%
remaining binding at 1 µM (PLK2): 89%
remaining binding at 1 µM (FLT1): 93%
remaining binding at 1 µM (DRAK2): 91%
remaining binding at 1 µM (FLT4): 99%
remaining binding at 1 µM (PRKD3): 92%
remaining binding at 1 µM (MARK3): 100%
remaining binding at 1 µM (CAMK1G): 97%
remaining binding at 1 µM (PIP5K2C): 85%
remaining binding at 1 µM (MYLK): 100%
remaining binding at 1 µM (PRKG2): 100%
remaining binding at 1 µM (TRKB): 100%
remaining binding at 1 µM (RIOK1): 90%
remaining binding at 1 µM (TAOK3): 100%
remaining binding at 1 µM (MUSK): 84%
remaining binding at 1 µM (YSK4): 67%
remaining binding at 1 µM (FGFR3): 100%
remaining binding at 1 µM (MST4): 99%
remaining binding at 1 µM (LTK): 94%
remaining binding at 1 µM (WEE2): 84%
remaining binding at 1 µM (PFTAIRE2): 97%
remaining binding at 1 µM (CDK11): 100%
remaining binding at 1 µM (BMPR2): 100%
remaining binding at 1 µM (JNK3): 86%
cell cycle progression ([1]; H1975, HCC827, PC9 and H3255 (EGFR mutants), 24-hour): dramatically blocked cell cycle at G0/G1 phase
cell cycle progression ([1]; wild-type EGFR lines A549 and H1355, up to 3 μM, 72-hour): did not cause cell cycle arrest
remaining binding at 1 µM (MET(M1250T)): 90%
remaining binding at 1 µM (EGFR(S752-I759del)): 12%
remaining binding at 1 µM (CAMK2G): 95%
remaining binding at 1 µM (PKNB(M.tuberculosis)): 100%
remaining binding at 1 µM (TAOK1): 100%
remaining binding at 1 µM (VRK2): 95%
remaining binding at 1 µM (CAMK1B): 82%
remaining binding at 1 µM (PRKX): 81%
remaining binding at 1 µM (CSNK2A1): 100%
remaining binding at 1 µM (PIK3CG): 100%
remaining binding at 1 µM [2]: 0.7%
remaining binding at 1 µM (MYO3A): 97%
remaining binding at 1 µM (MEK4): 80%
remaining binding at 1 µM [3]: 100%
remaining binding at 1 µM (ERK4): 83%
